Test results: PubChem BioAssay (NCI)
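These data come from cells grown in 96-well plates and exposed to compound for 48 hours at five concentrations. TGI: total growth inhibition.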

Tests used:
Assay in all cases: growth of human tumour cells (NCI), 48 h
MOLT-4 leukemia = tested on: MOLT-4 leukemia
UO-31 renal = tested on: UO-31 renal
TK-10 renal = tested on: TK-10 renal
HOP-62 NSCLC = tested on: HOP-62 NSCLC
K-562 leukemia = tested on: K-562 leukemia
HCT-15 colon = tested on: HCT-15 colon
OVCAR-5 ovarian = tested on: OVCAR-5 ovarian
HCT-116 colon = tested on: HCT-116 colon
M19-MEL melanoma = tested on: M19-MEL melanoma
SN12C renal = tested on: SN12C renal
UACC-62 melanoma = tested on: UACC-62 melanoma
DMS 273 small cell lung = tested on: DMS 273 small cell lung
HT29 colon = tested on: HT29 colon
NCI-H460 lung = tested on: NCI-H460 lung
LXFL 529 NSCLC = tested on: LXFL 529 NSCLC
A498 renal = tested on: A498 renal
SF-268 CNS = tested on: SF-268 CNS
NCI-H226 lung = tested on: NCI-H226 lung
DLD-1 colon = tested on: DLD-1 colon
OVCAR-8 ovarian = tested on: OVCAR-8 ovarian
NCI-H23 lung = tested on: NCI-H23 lung
SW-620 colon = tested on: SW-620 colon
HL-60(TB) leukemia = tested on: HL-60(TB) leukemia
HOP-18 NSCLC = tested on: HOP-18 NSCLC
KM20L2 colon = tested on: KM20L2 colon
SR leukemia = tested on: SR leukemia
SK-MEL-5 melanoma = tested on: SK-MEL-5 melanoma
U251 CNS = tested on: U251 CNS
A549 NSCLC = tested on: A549 NSCLC
HOP-92 NSCLC = tested on: HOP-92 NSCLC
M14 melanoma = tested on: M14 melanoma
OVCAR-4 ovarian = tested on: OVCAR-4 ovarian
HCC-2998 colon = tested on: HCC-2998 colon
UACC-257 melanoma = tested on: UACC-257 melanoma
ACHN renal = tested on: ACHN renal
OVCAR-3 ovarian = tested on: OVCAR-3 ovarian
LOX IMVI melanoma = tested on: LOX IMVI melanoma
MALME-3M melanoma = tested on: MALME-3M melanoma
RPMI-8226 leukemia = tested on: RPMI-8226 leukemia
IGROV1 ovarian = tested on: IGROV1 ovarian
CCRF-CEM leukemia = tested on: CCRF-CEM leukemia
COLO 205 colon = tested on: COLO 205 colon
SNB-19 CNS = tested on: SNB-19 CNS
SK-OV-3 ovarian = tested on: SK-OV-3 ovarian
SF-295 CNS = tested on: SF-295 CNS
CAKI-1 renal = tested on: CAKI-1 renal
SK-MEL-28 melanoma = tested on: SK-MEL-28 melanoma
786-0 renal = tested on: 786-0 renal
NCI-H522 lung = tested on: NCI-H522 lung
KM12 colon = tested on: KM12 colon
SF-539 CNS = tested on: SF-539 CNS
SNB-75 CNS = tested on: SNB-75 CNS

CCCCCCCCOCC(O)COC(C)C (stereo not drawn)
TGI (MOLT-4 leukemia): 45 µM | TGI (UO-31 renal): > 100 µM | TGI (TK-10 renal): > 100 µM | TGI (HOP-62 NSCLC): > 100 µM | TGI (K-562 leukemia): 96.6 µM | TGI (HCT-15 colon): > 100 µM | TGI (OVCAR-5 ovarian): > 100 µM | TGI (HCT-116 colon): > 100 µM | TGI (M19-MEL melanoma): > 100 µM | TGI (SN12C renal): 73.1 µM | TGI (UACC-62 melanoma): > 100 µM | TGI (DMS 273 small cell lung): 34.7 µM | TGI (HT29 colon): > 100 µM | TGI (NCI-H460 lung): > 100 µM | TGI (LXFL 529 NSCLC): > 100 µM | TGI (A498 renal): > 100 µM | TGI (SF-268 CNS): > 100 µM | TGI (NCI-H226 lung): > 100 µM | TGI (DLD-1 colon): > 100 µM | TGI (OVCAR-8 ovarian): > 100 µM | TGI (NCI-H23 lung): 88 µM | TGI (SW-620 colon): > 100 µM | TGI (HL-60(TB) leukemia): 31.7 µM | TGI (HOP-18 NSCLC): > 100 µM | TGI (KM20L2 colon): > 100 µM | TGI (SR leukemia): 40.2 µM | TGI (SK-MEL-5 melanoma): > 100 µM | TGI (U251 CNS): > 100 µM | TGI (A549 NSCLC): > 100 µM | TGI (HOP-92 NSCLC): 81.8 µM | TGI (M14 melanoma): > 100 µM | TGI (OVCAR-4 ovarian): > 100 µM | TGI (HCC-2998 colon): 58.3 µM | TGI (UACC-257 melanoma): 72.7 µM | TGI (ACHN renal): > 100 µM | TGI (OVCAR-3 ovarian): 32.9 µM | TGI (LOX IMVI melanoma): > 100 µM | TGI (MALME-3M melanoma): > 100 µM | TGI (RPMI-8226 leukemia): 51.9 µM | TGI (IGROV1 ovarian): > 100 µM | TGI (CCRF-CEM leukemia): 52.8 µM | TGI (COLO 205 colon): > 100 µM | TGI (SNB-19 CNS): > 100 µM | TGI (SK-OV-3 ovarian): > 100 µM | TGI (SF-295 CNS): > 100 µM | TGI (CAKI-1 renal): > 100 µM | TGI (SK-MEL-28 melanoma): > 100 µM | TGI (786-0 renal): > 100 µM

COc1ccc(/C=N/NC(=O)c2sc(=S)n(-c3ccccc3)c2N)cc1
TGI (MOLT-4 leukemia): > 100 µM | TGI (UO-31 renal): > 100 µM | TGI (TK-10 renal): > 100 µM | TGI (HOP-62 NSCLC): > 100 µM | TGI (K-562 leukemia): > 100 µM | TGI (OVCAR-5 ovarian): > 100 µM | TGI (HCT-116 colon): > 100 µM | TGI (M19-MEL melanoma): > 100 µM | TGI (NCI-H522 lung): > 100 µM | TGI (UACC-62 melanoma): > 100 µM | TGI (HT29 colon): > 100 µM | TGI (KM12 colon): > 100 µM | TGI (NCI-H460 lung): > 100 µM | TGI (LXFL 529 NSCLC): > 100 µM | TGI (SF-268 CNS): > 100 µM | TGI (NCI-H226 lung): > 100 µM | TGI (DLD-1 colon): > 100 µM | TGI (OVCAR-8 ovarian): > 100 µM | TGI (NCI-H23 lung): > 100 µM | TGI (SW-620 colon): > 100 µM | TGI (HL-60(TB) leukemia): > 100 µM | TGI (HOP-18 NSCLC): > 100 µM | TGI (SR leukemia): > 100 µM | TGI (SK-MEL-5 melanoma): > 100 µM | TGI (U251 CNS): > 100 µM | TGI (A549 NSCLC): > 100 µM | TGI (HOP-92 NSCLC): 79.5 µM | TGI (SF-539 CNS): > 100 µM | TGI (HCC-2998 colon): > 100 µM | TGI (UACC-257 melanoma): > 100 µM | TGI (ACHN renal): > 100 µM | TGI (OVCAR-3 ovarian): > 100 µM | TGI (IGROV1 ovarian): > 100 µM | TGI (CCRF-CEM leukemia): > 100 µM | TGI (COLO 205 colon): > 100 µM | TGI (SNB-19 CNS): > 100 µM | TGI (SK-OV-3 ovarian): > 100 µM | TGI (SNB-75 CNS): 8.67 µM | TGI (SF-295 CNS): > 100 µM | TGI (SK-MEL-28 melanoma): > 100 µM
